In patent US12065445B2, “CDK2 inhibitors and methods of using the same” (Cedilla Therapeutics, Inc., priority 2021, dated 2024):

system: Kuramochi cells labeled with mApple-H2B; assay: IncuCyte Cell Proliferation Assay; format: cell-based; conditions: 72 h
Experimental: IncuCyte® assay was used to measure the effect of disclosed compounds on cell proliferation. Fluorescent microscopy images of cells were taken immediately after compound treatment and 72 hours later. Image analysis software was used to obtain cell counts as a function of compound concentration. Kuramochi cells labeled with mApple-H2B were seeded on 384-well assay-ready plates. Plates were placed in an IncuCyte® (Sartorius) and scanned at 0 and 72 hours. IncuCyte® software was used to count the number of fluorescent nuclei in each well. The fold change in cell count from 0 to 72 hours in wells treated with increasing compounds concentrations (10 pts, ½ log dilution, 20 μM top concentration) was normalized to DMSO control wells. The normalized cell counts were fit with dose response curves and a […] was calculated.

| Compound | IC50 |
| --- | --- |
| CNC(=O)[C@@H](NC(=O)[C@@H]1CN(C(=O)c2cncs2)CC12CN(CC1COC1)C2)[C@@H](C)OCC12CCC(CC1)OC2 [I-348] | > 20 µM |
| CNC(=O)[C@@H](NC(=O)[C@@H]1CN(C(=O)c2cncs2)CC12CN(Cc1ccco1)C2)[C@@H](C)OCC12CCC(CC1)OC2 [I-349] | > 20 µM |
| CNC(=O)[C@@H](NC(=O)[C@@H]1CN(C(=O)c2cncs2)CC12CN(Cc1cnco1)C2)[C@@H](C)OCC12CCC(CC1)OC2 [I-350] | > 20 µM |
| CNC(=O)[C@@H](NC(=O)[C@@H]1CN(C(=O)c2cncs2)CC12CN(Cc1ccn[nH]1)C2)[C@@H](C)OCC12CCC(CC1)OC2 [I-351] | > 20 µM |
| CNC(=O)[C@@H](NC(=O)[C@@H]1CN(C(=O)c2cncs2)CC12CN(CC1CCCO1)C2)[C@@H](C)OCC1CCCCC1 (some centres unmarked) [I-352] | > 20 µM |
| C[C@@H](OCC1CCCCC1)[C@H](NC(=O)C1CN(C(=O)c2cnn(Cc3ccccc3)c2)CC12CN(C(=O)[C@H]1CC1(C)C)C2)C(=O)NCCC(=O)O (some centres unmarked) [I-353] | 5 to 20 µM |
| Cc1ccc(CNC(=O)[C@@H]2CN(C(=O)c3cnn(Cc4ccccc4)c3)CC23CN(C(=O)C(C)(C)C2CC2)C3)nn1 [I-387, (S)-6-(1-benzyl-1H-pyrazole-4-carbonyl)-2-(2-cyclopropyl-2-methylpropanoyl)-N-((6-methylpyridazin-3-yl)methyl)-2,6-diazaspiro[3.4]octane-8-carboxamide] | > 20 µM |
| CC1(C)C[C@@H]1C(=O)N1CC2(CN(C(=O)c3cnn(Cc4ccccc4)c3)C[C@H]2C(=O)NC[C@H]2CC[C@@H](C)CC2)C1 [I-388] | 0.5 to 5 µM |
| COC[C@H]1CCCN(C(=O)[C@@H](NC(=O)[C@@H]2CN(C(=O)c3cncs3)CC23CN(C(=O)C(C)(C)C2CC2)C3)[C@@H](C)OCC2CCCCC2)C1 [I-389] | 0.5 to 5 µM |
| COC[C@H]1CCCN(C(=O)[C@@H](NC(=O)[C@@H]2CN(C(=O)c3cncs3)CC23CN(C(=O)[C@H]2CC2(C)C)C3)[C@@H](C)OCC2CCC3(CCC3)CC2)C1 [I-390] | ≤ 0.5 µM |
| CNC(=O)C(NC(=O)[C@@H]1CN(C(=O)c2cnn(Cc3ccccc3)c2)CC12CN(C(=O)[C@H]1CC1(C)C)C2)c1cccc(C2CCCCC2)n1 (some centres unmarked) [I-391] | 0.5 to 5 µM |
| CC1(C)C[C@@H]1C(=O)N1CC2(CN(C(=O)c3cnn(Cc4ccccc4)c3)C[C@H]2C(=O)NCc2ccc(C(F)(F)F)nn2)C1 [I-392] | > 20 µM |
| CNC(=O)[C@@H](NC(=O)[C@@H]1CN(C(=O)c2cnn(Cc3ccccc3)c2)CC12CN(C(=O)[C@H]1CC1(C)C)C2)C(C)(C)OCc1ccccc1 [I-393] | 5 to 20 µM |
| C[C@@H](OCC1CCC(F)(F)CC1)[C@H](NC(=O)C1CN(C(=O)c2cncs2)CC12CN(C(=O)[C@H]1CC1(C)C)C2)C(=O)N1CCC(OC(F)(F)F)CC1 (some centres unmarked) [I-394] | ≤ 0.5 µM |
| C[C@@H](OC(C)(C)C1CCCCC1)[C@H](NC(=O)[C@@H]1CN(C(=O)c2cncs2)CC12CN(C(=O)[C@H]1CC1(C)C)C2)C(=O)N1CCCCC1 [I-395] | 0.5 to 5 µM |
| CNC(=O)[C@@H](NC(=O)[C@@H]1CN(C(=O)c2cnn(Cc3ccccc3)c2)CC12CN(C(=O)[C@H]1CC1(C)C)C2)C1(OCC2CCCCC2)CC1 [I-396] | 0.5 to 5 µM |
| C[C@@H](OCC1CCC(F)(F)CC1)[C@H](NC(=O)[C@@H]1CN(C(=O)c2cncs2)CC12CN(C(=O)[C@H]1CC1(C)C)C2)C(=O)N1CCC(CO)CC1 [I-397] | 0.5 to 5 µM |
| C[C@@H](OCc1ccc(Cl)cc1)[C@@H](CO)NC(=O)[C@@H]1CN(C(=O)c2cncs2)CC12CN(C(=O)[C@H]1CC1(C)C)C2 [I-404] | > 20 µM |
| Cc1ccc(CNC(=O)[C@@H]2CN(C(=O)c3cnc(Cc4ccccc4)s3)CC23CN(C(=O)[C@H]2CC2(C)C)C3)nn1 [I-405] | > 20 µM |
| COC[C@H]1CCCN(C(=O)[C@@H](NC(=O)[C@@H]2CN(C(=O)c3cncs3)CC23CN(C(=O)[C@H]2CC2(C)C)C3)[C@@H](C)OC[C@H]2CC[C@@H](OC)CC2)C1 [I-408] | 0.5 to 5 µM |
| C[C@@H](OCc1ccccc1)[C@H](NC(=O)[C@@H]1CN(C(=O)c2cnn(Cc3ccccc3)c2)CC12CN(C(=O)[C@H]1CC1(C)C)C2)C(=O)N(C)C [I-409] | 0.5 to 5 µM |
| CNC(=O)C(NC(=O)[C@@H]1CN(C(=O)c2cncs2)CC12CN(C(=O)C(C)(C)C1CC1)C2)c1cccc(C2CCCCC2)n1 (stereo partly drawn) [I-410, (8S)—N-(1-(6-cyclohexylpyridin-2-yl)-2-(methylamino)-2-oxoethyl)-2-(2-cyclopropyl-2-methylpropanoyl)-6-(thiazole-5-carbonyl)-2,6-diazaspiro[3.4]octane-8-carboxamide] | 0.5 to 5 µM |
| CNC(=O)C(NC(=O)[C@@H]1CN(C(=O)c2cncs2)CC12CN(C(=O)[C@H]1CC1(C)C)C2)c1cccc(C2CCC(F)(F)CC2)n1 (some centres unmarked) [I-411] | > 20 µM |
| C[C@@H](OCC1CC(F)(F)C1)[C@@H](CO)NC(=O)[C@@H]1CN(C(=O)c2cncs2)CC12CN(C(=O)[C@H]1CC1(C)C)C2 [I-412] | > 20 µM |
| CNC(=O)[C@@H](NC(=O)[C@@H]1CN(C(=O)c2cnn(Cc3ccccc3)c2)CC12CN(C(=O)[C@H]1CC1(C)C)C2)[C@@H](C)OC[C@H]1CC[C@H](O)CC1 [I-413] | > 20 µM |

| Compound | IC50 |
| --- | --- |
| CC1(C)C[C@@H]1C(=O)N1CC2(CN(C(=O)c3cncs3)C[C@H]2C(=O)NCc2cccc(C3CCCCC3)n2)C1 [I-414] | 0.5 to 5 µM |
| C[C@@H](OCc1ccccc1)[C@H](NC(=O)[C@@H]1CN(C(=O)c2cncs2)CC12CN(C(=O)[C@H]1CC1(C)C)C2)C(=O)N(C)C [I-416] | 5 to 20 µM |
| Cc1ccc(CNC(=O)[C@@H]2CN(C(=O)c3cnn(Cc4ccccn4)c3)CC23CN(C(=O)[C@H]2CC2(C)C)C3)nn1 [I-417] | > 20 µM |
| Cc1ccc(CNC(=O)[C@@H]2CN(C(=O)c3cnn(Cc4ccncc4)c3)CC23CN(C(=O)[C@H]2CC2(C)C)C3)nn1 [I-418] | > 20 µM |
| CC1(C)C[C@@H]1C(=O)N1CC2(CN(C(=O)c3cncs3)C[C@H]2C(=O)NC(CO)c2cccc(C3CCC(F)(F)CC3)n2)C1 (some centres unmarked) [I-419] | > 20 µM |
| CNC(=O)C(NC(=O)[C@@H]1CN(C(=O)c2cncs2)CC12CN(C(=O)[C@H]1CC1(C)C)C2)c1ccc(C)nn1 (some centres unmarked) [I-420] | > 20 µM |
| CNC(=O)C(NC(=O)[C@@H]1CN(C(=O)c2cnn(Cc3ccccc3)c2)CC12CN(C(=O)[C@H]1CC1(C)C)C2)c1ccc(C)nn1 (some centres unmarked) [I-421] | > 20 µM |
| CC(C)(O)C(NC(=O)[C@@H]1CN(C(=O)c2cncs2)CC12CN(C(=O)[C@H]1CC1(C)C)C2)c1cccc(C2CCOCC2)n1 (some centres unmarked) [I-423] | > 20 µM |
| COC[C@H]1CCCN(C(=O)[C@@H](NC(=O)[C@@H]2CN(C(=O)c3cncs3)CC23CN(C(=O)C(C)(C)C2CC2)C3)[C@@H](C)OC[C@H]2CC[C@H](O)CC2)C1 [I-431] | > 20 µM |
| COC[C@H]1CCCN(C(=O)[C@@H](NC(=O)[C@@H]2CN(C(=O)c3cncs3)CC23CN(C(=O)[C@H]2CC2(C)C)C3)[C@@H](C)OC[C@H]2CC[C@H](N)CC2)C1 [I-433] | > 20 µM |
| COC[C@H]1CCCN(C(=O)[C@@H](NC(=O)[C@@H]2CN(C(=O)c3cncs3)CC23CN(C(=O)[C@H]2CC2(C)C)C3)[C@@H](C)OC[C@H]2CC[C@H](NC(C)=O)CC2)C1 [I-434] | > 20 µM |
| COC[C@H]1CCCN(C(=O)[C@@H](NC(=O)[C@@H]2CN(C(=O)c3cncs3)CC23CN(C(=O)[C@H]2CC2(C)C)C3)[C@@H](C)OC[C@H]2CC[C@H](OC(F)(F)F)CC2)C1 [I-435] | 0.5 to 5 µM |
| CC(C)(O)C(NC(=O)[C@@H]1CN(C(=O)c2cnco2)CC12CN(C(=O)[C@H]1CC1(C)C)C2)c1cccc(C2CCOCC2)n1 (some centres unmarked) [I-436] | > 20 µM |
| Cc1nc(C)c(C(=O)N2C[C@@H](C(=O)NC(c3cccc(C4CCOCC4)n3)C(C)(C)O)C3(C2)CN(C(=O)[C@H]2CC2(C)C)C3)s1 (some centres unmarked) [I-437] | > 20 µM |
| C[C@@H](OCC1CCCCC1)[C@H](NC(=O)[C@@H]1CN(C(=O)c2cnn(Cc3ccccc3)c2)CC12CN(C(=O)[C@H]1CC1(C)C)C2)C(=O)N1CCC(c2cnc[nH]2)CC1 [I-438] | 0.5 to 5 µM |
| C[C@@H](OCC1CCCCC1)[C@H](NC(=O)[C@@H]1CN(C(=O)c2cnn(Cc3ccccc3)c2)CC12CN(C(=O)[C@H]1CC1(C)C)C2)C(=O)N1CCC(n2cccn2)CC1 [I-439] | ≤ 0.5 µM |
| C[C@@H](OCC1CCOCC1)[C@H](NC(=O)[C@@H]1CN(C(=O)c2cncs2)CC12CN(C(=O)[C@H]1CC1(C)C)C2)C(=O)N1CCC(n2ccnc2)CC1 [I-440] | > 20 µM |
| C[C@@H](OCC1CCCCC1)[C@H](NC(=O)[C@@H]1CN(C(=O)c2cnn(Cc3ccccc3)c2)CC12CN(C(=O)[C@H]1CC1(C)C)C2)C(=O)N1CCC(c2cc[nH]n2)CC1 [I-443] | ≤ 0.5 µM |
| C[C@@H](OCC1CCC2(CCC2)CC1)[C@H](NC(=O)[C@@H]1CN(C(=O)c2cnn(Cc3ccccc3)c2)CC12CN(C(=O)[C@H]1CC1(C)C)C2)C(=O)N1CCC(c2cnc[nH]2)CC1 [I-444] | ≤ 0.5 µM |
| C[C@@H](OCC1CCCCC1)[C@H](NC(=O)[C@@H]1CN(C(=O)c2cnn(Cc3ccccc3)c2)CC12CN(C(=O)[C@H]1CC1(C)C)C2)C(=O)N1CCC(c2nccs2)CC1 [I-445] | ≤ 0.5 µM |
| C[C@@H](OCC1CCCCC1)[C@H](NC(=O)[C@@H]1CN(C(=O)c2cnn(Cc3ccccc3)c2)CC12CN(C(=O)[C@H]1CC1(C)C)C2)C(=O)N1CCC(c2ncc[nH]2)CC1 [I-446] | 0.5 to 5 µM |
| C[C@@H](OCC12CCC(CC1)OC2)[C@H](NC(=O)[C@@H]1CN(C(=O)c2cnco2)CC12CN(C(=O)C(C)(C)C1CC1)C2)C(C)(C)O [I-448] | > 20 µM |
| C[C@@H](OCC1CCCCC1)[C@H](NC(=O)[C@@H]1CN(C(=O)c2cnn(Cc3ccccc3)c2)CC12CN(C(=O)[C@H]1CC1(C)C)C2)C(=O)N1CCC(c2nnco2)CC1 [I-449] | ≤ 0.5 µM |
| C[C@@H](OCC12CCC(CC1)OC2)[C@H](NC(=O)[C@@H]1CN(C(=O)c2cnco2)CC12CN(C(=O)[C@H]1CC1(C)C)C2)C(C)(C)O [I-450] | > 20 µM |
| COC1CCN(C(=O)[C@@H](NC(=O)[C@@H]2CN(C(=O)c3sc(C)nc3C)CC23CN(C(=O)[C@H]2CC2(C)C)C3)[C@@H](C)OCC23CCC(CC2)OC3)CC1 [I-451] | 5 to 20 µM |
